Patent publication US12213482B2, “Fungicide enhancers effective for treating plants infected with fungal pathogens” (Board of Regents, The University of Texas System, priority 2015, dated 2025)

Assays:
Format in all cases: cell-based
[1] = test system: Fusarium oxysporum f.sp Cubense; test: Antifungal susceptibility disk test, fungicide disk plus apyrase inhibitor in plate; details: inhibitor 65 μM, 30° C., 12 days; for inhibitory effect on the growth of F. oxysporum compared to copper octanoate alone: combined with copper octanoate (285 mM) disk, FIG. 4A
Description: Copper Octanoate, 4B. Propiconazole, and 4C. Myclobutanil against the pathogenic fungi Fusarium oxysporum. […] The equivalent volume of dimethylsulphoxide (DMSO) was added as a control. The studies were repeated two times with similar results. Error bars indicate standard deviations (n=5). The significances of the potency of fungicides are indicated: *** (Student's t-test, P<0.001); **(Student's t-test, P<0.01) or *(Student's t-test, P<0.05). The plant pathogenic fungal strains Botrytis cinerea, Colletotrichum graminicola, Fusarium oxysporum, Sclerotiana sclerotiorum and Verticillium dahliae were obtained from the Institute for Plant Genomics & Biotechnology, Texas A & M University, USA Potato dextrose agar (PDA, Sigma-Aldrich) was routinely used for the growth of different pathogenic fungal strain. Ectophosphatase inhibitors NGXT191 (AI.1), AI.10, NGXT1913 (AI.13), and AI. 15 were used dal this study. The fungicides copper octanoate (C16H30CuO4), myclobutanil (C15H17ClN4) and propiconazole (C15H17Cl2N3O2) were used. The concentrations of these compounds used were copper octanoate (285 mM), myclobutanil (53.6 mM) and propiconazole (418 mM). Standard antifungal susceptibility disk tests were performed to determine any potentiating effect of ectophosphatase inhibitors on the growth of pathogenic fungus. The pathogenic fungus wild-type strains were plated on PDA medium with paper-disks containing, fungicides at the center of the plate. […] Plates were incubated at 30° C. for 7-days (C. graminicola and S. sclerotiorum) or 12-days (B. cinerea, F. oxysporum and V. dahliae), depending on the growth rate of the fungi. Plates were photographed, and the zone of fungal growth inhibition was measured by using IMAGE J™ software (NIH, USA). All the tests were performed with 5 replicates. The studies were performed two times. Results were analyzed for significance using Student T-tests.

Sclerotiana sclerotiorum = test: as above; details: inhibitor 65 μM, 30° C., 7 days; for inhibitory effect on the growth of Sclerotiana sclerotiorum compared to copper octanoate alone: combined with copper octanoate (285 mM) disk, FIG. 5A; for inhibitory effect on growth of Sclerotiana sclerotiorum compared to myclobutanil alone: combined with myclobutanil (53.6 mM) disk, FIG. 5B; for inhibitory effect on the growth of Sclerotiana sclerotiorum compared to propiconazole alone: combined with propiconazole (418 mM) disk, FIG. 5C
Description: The equivalent volume of dimethylsulphoxide (DMSO) was added as a control. The studies were repeated two times with similar results. Error bars indicate standard deviations (n=5). The significances of the potency of fungicides are indicated: *** (Student's t-test, P<0.001); **(Student's t-test, P<0.01) or *(Student's t-test, P<0.05). The plant pathogenic fungal strains Botrytis cinerea, Colletotrichum graminicola, Fusarium oxysporum, Sclerotiana sclerotiorum and Verticillium dahliae were obtained from the Institute for Plant Genomics & Biotechnology, Texas A & M University, USA Potato dextrose agar (PDA, Sigma-Aldrich) was routinely used for the growth of different pathogenic fungal strain. Ectophosphatase inhibitors NGXT191 (AI.1), AI.10, NGXT1913 (AI.13), and AI. 15 were used dal this study. The fungicides copper octanoate (C16H30CuO4), myclobutanil (C15H17ClN4) and propiconazole (C15H17Cl2N3O2) were used. The concentrations of these compounds used were copper octanoate (285 mM), myclobutanil (53.6 mM) and propiconazole (418 mM). Standard antifungal susceptibility disk tests were performed to determine any potentiating effect of ectophosphatase inhibitors on the growth of pathogenic fungus. The pathogenic fungus wild-type strains were plated on PDA medium with paper-disks containing, fungicides at the center of the plate. […] Plates were incubated at 30° C. for 7-days (C. graminicola and S. sclerotiorum) or 12-days (B. cinerea, F. oxysporum and V. dahliae), depending on the growth rate of the fungi. Plates were photographed, and the zone of fungal growth inhibition was measured by using IMAGE J™ software (NIH, USA). All the tests were performed with 5 replicates. The studies were performed two times. Results were analyzed for significance using Student T-tests.

Verticillium dahliae = test: as above; details: inhibitor 65 μM, 30° C., 12 days; for inhibitory effect on the growth of V. dahliae compared to copper octanoate alone: combined with copper octanoate (285 mM) disk, FIG. 6A; for inhibitory effect on the growth of V. dahliae compared to propiconazole alone: combined with propiconazole (418 mM) disk, FIG. 6C
Description: Copper Octanoate, 6B. Propiconazole, and 6C. Myclobutanil against the pathogenic fungi Verticillium dahliae. […] The equivalent volume of dimethylsulphoxide (DMSO) was added as a control. The studies were repeated two times with similar results. Error bars indicate standard deviations (n=5). The significances of the potency of fungicides are indicated: *** […]); **(Student's t-test, P<0.01) or *(Student's t test, P<0.05). The plant pathogenic fungal strains Botrytis cinerea, Colletotrichum graminicola, Fusarium oxysporum, Sclerotiana sclerotiorum and Verticillium dahliae were obtained from the Institute for Plant Genomics & Biotechnology, Texas A & M University, USA Potato dextrose agar (PDA, Sigma-Aldrich) was routinely used for the growth of different pathogenic fungal strain. Ectophosphatase inhibitors NGXT191 (AI.1), AI.10, NGXT1913 (AI.13), and AI. 15 were used dal this study. The fungicides copper octanoate (C16H30CuO4), myclobutanil (C15H17ClN4) and propiconazole (C15H17Cl2N3O2) were used. The concentrations of these compounds used were copper octanoate (285 mM), myclobutanil (53.6 mM) and propiconazole (418 mM). Standard antifungal susceptibility disk tests were performed to determine any potentiating effect of ectophosphatase inhibitors on the growth of pathogenic fungus. The pathogenic fungus wild-type strains were plated on PDA medium with paper-disks containing, fungicides at the center of the plate. […] Plates were incubated at 30° C. for 7-days (C. graminicola and S. sclerotiorum) or 12-days (B. cinerea, F. oxysporum and V. dahliae), depending on the growth rate of the fungi. Plates were photographed, and the zone of fungal growth inhibition was measured by using IMAGE J™ software (NIH, USA). All the tests were performed with 5 replicates. The studies were performed two times. Results were analyzed for significance using Student T-tests.

plant pathogenic fungi = test: Fungal plate assays, apyrase inhibitors tested alone; details: apyrase inhibitor alone, no fungicide
Description: Standard antifungal susceptibility disk tests were performed to determine any potentiating effect of ectophosphatase inhibitors on the growth of pathogenic fungus. The pathogenic fungus wild-type strains were plated on PDA medium with paper-disks containing, fungicides at the center of the plate. […] Plates were incubated at 30° C. for 7-days (C. graminicola and S. sclerotiorum) or 12-days (B. cinerea, F. oxysporum and V. dahliae), depending on the growth rate of the fungi. Plates were photographed, and the zone of fungal growth inhibition was measured by using IMAGE J™ software (NIH, USA). All the tests were performed with 5 replicates. The studies were performed two times. Results were analyzed for significance using Student T-tests.

| Compound | inhibitory effect on the growth of F. oxysporum compared to copper octanoate alone [1] | inhibitory effect on the growth of Sclerotiana sclerotiorum compared to copper octanoate alone (Sclerotiana sclerotiorum) | inhibitory effect on growth of Sclerotiana sclerotiorum compared to myclobutanil alone (Sclerotiana sclerotiorum) | inhibitory effect on the growth of Sclerotiana sclerotiorum compared to propiconazole alone (Sclerotiana sclerotiorum) | inhibitory effect on the growth of V. dahliae compared to copper octanoate alone (Verticillium dahliae) | fungicidal activity when tested alone (plant pathogenic fungi) | inhibitory effect on the growth of F. oxysporum compared to myclobutanil alone ([1]; combined with myclobutanil (53.6 mM) disk, FIG. 4B) | inhibitory effect on the growth of F. oxysporum compared to propiconazole alone ([1]; combined with propiconazole (418 mM) disk, FIG. 4C) | inhibitory effect on the growth of V. dahliae compared to propiconazole alone (Verticillium dahliae) | inhibitory effect on the growth of V. dahliae compared to myclobutanil alone (Verticillium dahliae; combined with myclobutanil (53.6 mM) disk, FIG. 6B) |
| --- | --- | --- | --- | --- | --- | --- | --- | --- | --- | --- |
| Cc1cccc(NS(=O)(=O)c2ccc(-c3ccccc3)cc2)c1 [AI.1, N-(m-tolyl)-[1,1′-biphenyl]-4-sulfonamide] | significantly greater inhibitory effect | significantly greater inhibitory effect | significantly greater inhibitory effect | significantly greater inhibitory effect | significantly greater inhibitory effect | no fungicidal activity was detected |  |  |  |  |
| CCCCCCCSC(=O)c1cc2ccccc2oc1=O [AI.10, S-heptyl 2-oxo-2H-chromene-3-carbothioate] |  | significantly greater inhibitory effect | significantly greater inhibitory effect | significantly greater inhibitory effect | significantly greater inhibitory effect | no fungicidal activity was detected | significantly greater inhibitory effect | significantly greater inhibitory effect | significantly greater inhibitory effect |  |
| O=C(Nc1cccc([N+](=O)[O-])c1)c1cccc(S(=O)(=O)Nc2ccc(Br)cc2)c1 [AI.13, 3-(N-(4-bromophenyl)sulfamoyl)-N-(3-nitrophenyl)benzamide] | significantly greater inhibitory effect | significantly greater inhibitory effect | significantly greater inhibitory effect | significantly greater inhibitory effect | significantly greater inhibitory effect | no fungicidal activity was detected |  |  |  |  |
| C/C(=N\NC(=O)c1cccc(C)c1)c1ccc2ccccc2c1 [AI.15, (E)-3-methyl-N′-(1-(naphthalen-2-yl)ethylidene)benzohydrazide] |  | significantly greater inhibitory effect | significantly greater inhibitory effect | significantly greater inhibitory effect | significantly greater inhibitory effect | no fungicidal activity was detected |  |  | significantly greater inhibitory effect | significantly greater inhibitory effect |
